From ChEMBL document CHEMBL4507283, “Data for DCP probe BI-1935” (2021)
The source made the active and inactive calls. The calls are words filed in the database; no cut-off is given here.

What was measured:
[1] = molecular target: Leucine-rich repeat serine/threonine-protein kinase 2 (Homo sapiens) (UniProt Q5S007); conditions: Compound concentration 1000.0 nM
[2] = molecular target: Phosphatidylinositol 4-phosphate 3-kinase C2 domain-containing subunit beta (Homo sapiens) (UniProt O00750); conditions: Compound concentration 1000.0 nM
[3] = molecular target: Insulin-like growth factor 1 receptor (Homo sapiens) (UniProt P08069); conditions: Compound concentration 1000.0 nM
[4] = molecular target: Serine/threonine-protein kinase D3 (Homo sapiens) (UniProt O94806); conditions: Compound concentration 1000.0 nM
[5] = molecular target: Cyclin-dependent kinase 19 (Homo sapiens) (UniProt Q9BWU1); conditions: Compound concentration 1000.0 nM
[6] = system: Epidermal growth factor receptor (Homo sapiens), P00533 [UNDEFINED MUTATION]; conditions: Compound concentration 1000.0 nM
[7] = molecular target: Homeodomain-interacting protein kinase 1 (Homo sapiens) (UniProt Q86Z02); conditions: Compound concentration 1000.0 nM
[8] = molecular target: 5-hydroxytryptamine receptor 1D (Homo sapiens) (UniProt P28221); conditions: Compound concentration 10.0 uM
[9] = molecular target: Activin receptor type-2A (Homo sapiens) (UniProt P27037); conditions: Compound concentration 1000.0 nM
[10] = system: Tyrosine-protein kinase ABL1 (Homo sapiens), P00519 [T315I]; conditions: Compound concentration 1000.0 nM
[11] = molecular target: Protein-tyrosine kinase 2-beta (Homo sapiens) (UniProt Q14289); conditions: Compound concentration 1000.0 nM
[12] = molecular target: Calcium/calmodulin-dependent protein kinase type II subunit alpha (Homo sapiens) (UniProt Q9UQM7); conditions: Compound concentration 1000.0 nM
[13] = molecular target: Serine/threonine-protein kinase Nek6 (Homo sapiens) (UniProt Q9HC98); conditions: Compound concentration 1000.0 nM
[14] = molecular target: Cyclin-dependent kinase 2 homolog (Plasmodium falciparum (isolate 3D7)) (UniProt P61075); conditions: Compound concentration 1000.0 nM
[15] = molecular target: Tyrosine-protein kinase JAK2 (Homo sapiens) (UniProt O60674); conditions: Compound concentration 1000.0 nM
[16] = molecular target: Mitogen-activated protein kinase kinase kinase 12 (Homo sapiens) (UniProt Q12852); conditions: Compound concentration 1000.0 nM
[17] = molecular target: Rhodopsin kinase GRK1 (Homo sapiens) (UniProt Q15835); conditions: Compound concentration 1000.0 nM
[18] = molecular target: Dual specificity mitogen-activated protein kinase kinase 5 (Homo sapiens) (UniProt Q13163); conditions: Compound concentration 1000.0 nM
[19] = system: Tyrosine-protein kinase ABL1 (Homo sapiens), P00519 [H396P]; conditions: Compound concentration 1000.0 nM
[20] = molecular target: Phosphatidylinositol 4-phosphate 5-kinase type-1 gamma (Homo sapiens) (UniProt O60331); conditions: Compound concentration 1000.0 nM
[21] = system: Mast/stem cell growth factor receptor Kit (Homo sapiens), P10721 [D816V]; conditions: Compound concentration 1000.0 nM
[22] = molecular target: T1, Bifunctional epoxide hydrolase 2 (Homo sapiens, UniProt P34913); assay: Cellular assay
T1 sequence (P34913 whole entry): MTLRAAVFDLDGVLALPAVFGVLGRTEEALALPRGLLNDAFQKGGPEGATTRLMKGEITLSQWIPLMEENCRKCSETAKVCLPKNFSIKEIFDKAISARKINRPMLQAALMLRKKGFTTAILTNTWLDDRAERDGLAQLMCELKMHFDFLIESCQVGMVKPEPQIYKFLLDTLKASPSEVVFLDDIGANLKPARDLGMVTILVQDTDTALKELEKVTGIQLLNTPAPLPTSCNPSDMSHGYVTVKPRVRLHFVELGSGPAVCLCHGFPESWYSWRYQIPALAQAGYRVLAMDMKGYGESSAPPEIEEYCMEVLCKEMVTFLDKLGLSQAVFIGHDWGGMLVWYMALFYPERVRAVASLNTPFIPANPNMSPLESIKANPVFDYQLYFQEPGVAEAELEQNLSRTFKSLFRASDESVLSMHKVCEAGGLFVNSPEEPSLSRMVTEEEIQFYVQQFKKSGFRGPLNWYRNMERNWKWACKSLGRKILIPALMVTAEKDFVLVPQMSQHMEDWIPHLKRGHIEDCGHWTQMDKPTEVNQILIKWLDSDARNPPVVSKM

[23] = molecular target: Alpha-2A adrenergic receptor (Homo sapiens) (UniProt P08913); conditions: Compound concentration 10.0 uM
[24] = molecular target: Focal adhesion kinase 1 (Homo sapiens) (UniProt Q05397); conditions: Compound concentration 1000.0 nM
[25] = molecular target: Serine/threonine-protein kinase 25 (Homo sapiens) (UniProt O00506); conditions: Compound concentration 1000.0 nM
[26] = molecular target: TGF-beta receptor type-1 (Homo sapiens) (UniProt P36897); conditions: Compound concentration 1000.0 nM
[27] = molecular target: Cyclin-dependent kinase-like 3 (Homo sapiens) (UniProt Q8IVW4); conditions: Compound concentration 1000.0 nM
[28] = molecular target: Calcium/calmodulin-dependent protein kinase type II subunit gamma (Homo sapiens) (UniProt Q13555); conditions: Compound concentration 1000.0 nM
[29] = molecular target: Serine/threonine-protein kinase 16 (Homo sapiens) (UniProt O75716); conditions: Compound concentration 1000.0 nM
[30] = molecular target: GABA-A receptor; anion channel (Rattus norvegicus) (UniProt O09028+P15431+P18506+P18508+P19969+P20236+P23574+P23576+P28471+P28473+P30191+P62813+P63079+P63138+Q91ZM7+Q9ES14); conditions: Compound concentration 10.0 uM
[31] = molecular target: Serine/threonine-protein kinase 10 (Homo sapiens) (UniProt O94804); conditions: Compound concentration 1000.0 nM
[32] = molecular target: Mitogen-activated protein kinase 6 (Homo sapiens) (UniProt Q16659); conditions: Compound concentration 1000.0 nM
[33] = molecular target: Maternal embryonic leucine zipper kinase (Homo sapiens) (UniProt Q14680); conditions: Compound concentration 1000.0 nM
[34] = molecular target: Sigma intracellular receptor 2 (Homo sapiens) (UniProt Q5BJF2); conditions: Compound concentration 10.0 uM
[35] = molecular target: 1-phosphatidylinositol 3-phosphate 5-kinase (Homo sapiens) (UniProt Q9Y2I7); conditions: Compound concentration 1000.0 nM
[36] = molecular target: NUAK family SNF1-like kinase 1 (Homo sapiens) (UniProt O60285); conditions: Compound concentration 1000.0 nM

Sequence of 5-hydroxytryptamine receptor 1D (Homo sapiens) (P28221 whole entry): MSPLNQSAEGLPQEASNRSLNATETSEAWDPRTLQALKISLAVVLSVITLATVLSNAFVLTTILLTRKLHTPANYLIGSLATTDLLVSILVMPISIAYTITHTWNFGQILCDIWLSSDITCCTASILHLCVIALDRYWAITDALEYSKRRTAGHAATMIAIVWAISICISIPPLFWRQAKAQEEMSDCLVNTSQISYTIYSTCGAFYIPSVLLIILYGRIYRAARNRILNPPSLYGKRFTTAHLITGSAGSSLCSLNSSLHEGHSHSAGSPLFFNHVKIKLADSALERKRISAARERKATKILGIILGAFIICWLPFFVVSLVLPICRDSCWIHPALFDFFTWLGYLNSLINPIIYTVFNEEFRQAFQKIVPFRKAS
Sequence of Tyrosine-protein kinase JAK2 (Homo sapiens) (O60674 whole entry): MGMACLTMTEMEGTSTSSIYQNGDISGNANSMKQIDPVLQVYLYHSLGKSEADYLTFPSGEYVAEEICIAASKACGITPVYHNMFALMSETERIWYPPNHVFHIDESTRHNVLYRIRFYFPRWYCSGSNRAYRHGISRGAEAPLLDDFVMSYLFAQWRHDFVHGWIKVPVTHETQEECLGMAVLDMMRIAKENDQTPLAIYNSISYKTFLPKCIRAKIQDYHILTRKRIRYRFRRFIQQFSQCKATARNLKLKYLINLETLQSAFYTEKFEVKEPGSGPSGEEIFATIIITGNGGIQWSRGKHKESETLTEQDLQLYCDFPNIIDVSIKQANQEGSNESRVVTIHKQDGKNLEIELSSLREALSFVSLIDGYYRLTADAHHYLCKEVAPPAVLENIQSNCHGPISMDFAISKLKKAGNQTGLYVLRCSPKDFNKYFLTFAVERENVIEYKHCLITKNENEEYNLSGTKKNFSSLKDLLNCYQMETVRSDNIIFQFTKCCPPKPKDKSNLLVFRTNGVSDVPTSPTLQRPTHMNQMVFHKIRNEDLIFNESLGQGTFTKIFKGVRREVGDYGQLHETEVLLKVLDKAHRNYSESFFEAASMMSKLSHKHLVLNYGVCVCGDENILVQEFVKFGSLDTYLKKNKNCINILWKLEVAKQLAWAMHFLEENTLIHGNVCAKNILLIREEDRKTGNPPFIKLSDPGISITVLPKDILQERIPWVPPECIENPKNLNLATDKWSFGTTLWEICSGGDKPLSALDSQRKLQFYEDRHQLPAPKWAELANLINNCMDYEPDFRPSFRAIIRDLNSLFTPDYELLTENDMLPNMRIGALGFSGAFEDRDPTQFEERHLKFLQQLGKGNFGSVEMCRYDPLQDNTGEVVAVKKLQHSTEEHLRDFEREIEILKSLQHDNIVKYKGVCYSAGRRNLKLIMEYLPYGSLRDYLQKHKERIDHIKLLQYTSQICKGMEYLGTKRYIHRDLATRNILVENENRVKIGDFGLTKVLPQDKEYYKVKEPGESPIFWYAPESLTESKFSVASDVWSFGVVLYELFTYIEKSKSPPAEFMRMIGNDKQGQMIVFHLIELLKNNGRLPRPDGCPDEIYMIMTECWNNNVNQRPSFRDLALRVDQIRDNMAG
Sequence of Calcium/calmodulin-dependent protein kinase type II subunit gamma (Homo sapiens) (Q13555 whole entry): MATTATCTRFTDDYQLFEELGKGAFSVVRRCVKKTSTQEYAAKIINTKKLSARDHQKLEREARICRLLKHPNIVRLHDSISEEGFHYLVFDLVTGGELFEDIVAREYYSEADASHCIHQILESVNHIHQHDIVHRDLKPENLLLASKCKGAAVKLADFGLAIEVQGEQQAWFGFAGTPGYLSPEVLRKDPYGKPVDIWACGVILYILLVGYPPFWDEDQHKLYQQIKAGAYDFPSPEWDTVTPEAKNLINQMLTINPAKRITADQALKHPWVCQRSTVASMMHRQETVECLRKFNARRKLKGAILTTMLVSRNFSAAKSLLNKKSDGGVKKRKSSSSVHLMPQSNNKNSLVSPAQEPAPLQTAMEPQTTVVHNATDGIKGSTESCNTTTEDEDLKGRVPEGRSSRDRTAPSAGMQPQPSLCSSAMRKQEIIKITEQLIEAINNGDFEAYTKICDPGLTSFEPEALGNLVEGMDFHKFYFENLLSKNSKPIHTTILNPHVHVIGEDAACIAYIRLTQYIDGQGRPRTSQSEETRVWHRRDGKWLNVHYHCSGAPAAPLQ
Sequence of 1-phosphatidylinositol 3-phosphate 5-kinase (Homo sapiens) (Q9Y2I7 whole entry): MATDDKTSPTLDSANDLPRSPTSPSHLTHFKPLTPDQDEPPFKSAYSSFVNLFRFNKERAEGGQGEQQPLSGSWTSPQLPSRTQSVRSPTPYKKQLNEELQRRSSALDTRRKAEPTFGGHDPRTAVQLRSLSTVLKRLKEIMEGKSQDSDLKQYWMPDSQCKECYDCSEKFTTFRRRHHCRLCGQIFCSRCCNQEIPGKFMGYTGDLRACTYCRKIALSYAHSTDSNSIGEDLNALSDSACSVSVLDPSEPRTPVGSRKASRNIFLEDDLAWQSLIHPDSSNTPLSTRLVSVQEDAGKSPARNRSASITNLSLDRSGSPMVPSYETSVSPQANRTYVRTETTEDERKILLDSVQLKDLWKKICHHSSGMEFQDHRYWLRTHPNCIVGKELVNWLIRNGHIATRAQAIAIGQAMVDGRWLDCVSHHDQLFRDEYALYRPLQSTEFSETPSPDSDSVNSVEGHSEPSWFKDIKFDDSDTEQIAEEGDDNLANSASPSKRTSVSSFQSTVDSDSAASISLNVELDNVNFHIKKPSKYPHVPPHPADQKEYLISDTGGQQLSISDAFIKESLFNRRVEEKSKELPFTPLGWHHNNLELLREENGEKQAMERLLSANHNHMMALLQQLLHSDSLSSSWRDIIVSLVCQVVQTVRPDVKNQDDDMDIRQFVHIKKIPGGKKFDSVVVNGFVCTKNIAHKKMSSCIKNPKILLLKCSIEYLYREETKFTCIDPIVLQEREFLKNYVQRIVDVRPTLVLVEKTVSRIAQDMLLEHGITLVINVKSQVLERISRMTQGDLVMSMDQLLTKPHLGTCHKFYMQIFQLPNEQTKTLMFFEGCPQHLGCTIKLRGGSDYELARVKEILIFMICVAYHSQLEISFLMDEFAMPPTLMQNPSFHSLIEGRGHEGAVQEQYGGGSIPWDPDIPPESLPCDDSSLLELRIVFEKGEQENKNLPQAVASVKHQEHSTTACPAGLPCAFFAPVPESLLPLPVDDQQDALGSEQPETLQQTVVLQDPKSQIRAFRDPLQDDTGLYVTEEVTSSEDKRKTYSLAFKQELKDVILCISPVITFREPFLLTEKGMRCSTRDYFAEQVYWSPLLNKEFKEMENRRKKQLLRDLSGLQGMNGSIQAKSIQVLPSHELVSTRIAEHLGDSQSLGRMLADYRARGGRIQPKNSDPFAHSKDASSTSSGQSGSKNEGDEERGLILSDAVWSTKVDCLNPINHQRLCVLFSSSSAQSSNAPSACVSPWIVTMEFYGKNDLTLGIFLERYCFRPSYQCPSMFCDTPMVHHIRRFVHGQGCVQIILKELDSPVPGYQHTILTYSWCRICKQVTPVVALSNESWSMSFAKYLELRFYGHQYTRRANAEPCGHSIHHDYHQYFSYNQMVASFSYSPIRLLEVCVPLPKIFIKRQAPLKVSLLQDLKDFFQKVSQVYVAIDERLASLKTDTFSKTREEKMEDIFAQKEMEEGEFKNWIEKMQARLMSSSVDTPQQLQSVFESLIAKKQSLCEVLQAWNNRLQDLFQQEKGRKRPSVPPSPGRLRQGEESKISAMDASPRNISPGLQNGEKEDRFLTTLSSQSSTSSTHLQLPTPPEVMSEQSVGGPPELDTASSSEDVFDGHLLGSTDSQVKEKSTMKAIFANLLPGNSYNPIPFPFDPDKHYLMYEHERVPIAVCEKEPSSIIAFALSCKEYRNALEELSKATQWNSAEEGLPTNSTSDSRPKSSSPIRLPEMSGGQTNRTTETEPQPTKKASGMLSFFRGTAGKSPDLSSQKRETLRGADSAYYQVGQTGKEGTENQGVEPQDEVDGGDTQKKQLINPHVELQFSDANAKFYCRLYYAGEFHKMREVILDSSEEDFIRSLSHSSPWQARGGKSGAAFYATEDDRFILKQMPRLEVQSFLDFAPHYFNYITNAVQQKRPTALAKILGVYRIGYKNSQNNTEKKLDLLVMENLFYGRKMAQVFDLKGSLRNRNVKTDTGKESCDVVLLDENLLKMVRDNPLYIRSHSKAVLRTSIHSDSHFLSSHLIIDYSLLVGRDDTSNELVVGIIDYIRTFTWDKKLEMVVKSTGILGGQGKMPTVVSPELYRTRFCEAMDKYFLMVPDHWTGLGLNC
Sequence of TGF-beta receptor type-1 (Homo sapiens) (P36897 whole entry): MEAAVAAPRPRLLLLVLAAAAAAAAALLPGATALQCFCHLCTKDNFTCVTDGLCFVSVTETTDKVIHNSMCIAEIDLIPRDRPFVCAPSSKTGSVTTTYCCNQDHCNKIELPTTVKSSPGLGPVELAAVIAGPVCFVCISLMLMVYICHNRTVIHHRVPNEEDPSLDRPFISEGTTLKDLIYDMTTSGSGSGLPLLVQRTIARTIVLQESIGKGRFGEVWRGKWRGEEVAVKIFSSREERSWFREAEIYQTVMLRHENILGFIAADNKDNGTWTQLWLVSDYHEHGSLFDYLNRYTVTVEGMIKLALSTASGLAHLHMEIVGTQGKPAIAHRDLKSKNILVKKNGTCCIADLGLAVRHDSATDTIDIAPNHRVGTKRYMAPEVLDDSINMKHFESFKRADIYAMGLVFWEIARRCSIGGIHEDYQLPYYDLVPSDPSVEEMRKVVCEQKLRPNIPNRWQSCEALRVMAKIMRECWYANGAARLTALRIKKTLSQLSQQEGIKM
Sequence of Cyclin-dependent kinase 2 homolog (Plasmodium falciparum (isolate 3D7)) (P61075 whole entry): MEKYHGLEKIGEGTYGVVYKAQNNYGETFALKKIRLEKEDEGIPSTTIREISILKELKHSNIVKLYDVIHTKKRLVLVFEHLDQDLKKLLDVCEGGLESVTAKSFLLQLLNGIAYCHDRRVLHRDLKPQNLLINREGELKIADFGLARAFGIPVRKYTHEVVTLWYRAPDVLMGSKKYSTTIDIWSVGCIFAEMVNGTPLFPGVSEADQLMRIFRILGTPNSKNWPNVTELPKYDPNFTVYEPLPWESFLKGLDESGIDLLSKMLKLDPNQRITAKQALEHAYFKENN

Compound: CCOCCn1cc(C(=O)Nc2ccc(-n3nc(-c4cccnc4)cc3C(F)(F)F)cn2)ccc1=O [BI 1935]
- residual activity [1]: 100%
- residual activity [2]: 72%
- residual activity [3]: 96%
- residual activity [4]: 81%
- residual activity [5]: 95%
- residual activity [6]: 100%
- residual activity [7]: 90%
- inhibition [8]: 0.593%
- residual activity [9]: 100%
- residual activity [10]: 96%
- residual activity [11]: 100%
- residual activity [12]: 93%
- residual activity [13]: 96%
- residual activity [14]: 86%
- residual activity [15]: 91%
- residual activity [16]: 100%
- residual activity [17]: 74%
- residual activity [18]: 84%
- residual activity [19]: 94%
- residual activity [20]: 100%
- residual activity [21]: 92%
- IC50 [22]: < 1 nM (active)
- inhibition [23]: -1.74%
- residual activity [24]: 100%
- residual activity [25]: 95%
- residual activity [26]: 100%
- residual activity [27]: 84%
- residual activity [28]: 100%
- residual activity [29]: 92%
- inhibition [30]: 34.3%
- residual activity [31]: 100%
- residual activity [32]: 100%
- residual activity [33]: 93%
- inhibition [34]: -2.98%
- residual activity [35]: 97%
- residual activity [36]: 100%
